Source: ChEMBL document CHEMBL5500384, “New synergistic benzoquinone scaffolds as inhibitors of mycobacterial cytochrome bc1 complex to treat multi-drug resistant tuberculosis” (Eur J Med Chem, 2024)

Tests used:
[1] = Acute toxicity in Albino mouse assessed as mortality at 50 mg/kg, po after 14 days; type: organism-based; settings: in vivo, 336 h, time 14 day
[2] = Cytotoxicity against african green monkey Vero cells by MTT assay; type: toxicity, cell-based; settings: chlorocebus sabaeus
[3] = system: Mycobacterium tuberculosis; test: Antitubercular activity against Mycobacterium tuberculosis H37Rv assessed as effect on nucleoid morphology at 12.5 ug/ml by fluorescence microscopy analysis; type: functional; settings: dose 12.5 µg/ml
[4] = Hepatotoxicity in Albino mouse assessed as change in hepatocytes at 50 to 2000 mg/kg, po measured after 14 days; type: toxicity, organism-based; settings: in vivo, 336 h, dose 50-2000 mg/kg, time 14 day
[5] = Acute toxicity in Albino mouse assessed as mortality at 300 mg/kg, po after 5 to 8 hrs; type: organism-based; settings: in vivo, time 5-8 hrs
[6] = system: Mycobacterium tuberculosis; test: Antitubercular activity against Mycobacterium tuberculosis H37Rv assessed as effect on nucleoid morphology at 6.25 ug/ml by fluorescence microscopy analysis; type: functional; settings: dose 6.25 µg/ml
[7] = Acute toxicity in Albino mouse assessed as mortality at 300 mg/kg, po after 14 days; type: organism-based; settings: in vivo, 336 h, time 14 day

Q: Which Activity [1] does the source give for COc1ccc(C2C(Cl)C(=O)N2C2=C(Cl)C(=O)c3ccccc3C2=O)cc1 (centres undefined) here?
A: Its Activity is “Non-Toxic”.

Q: And the Activity [2]?
A: Its Activity is “Dose-Dependent Effect”.

Q: What about the Activity [3] of the same compound?
A: The Activity was 99%.

Q: What about the Activity [4] of the same compound?
A: Its Activity is “Non-Toxic”.

Q: And the Activity [5]?
A: The Activity was “Toxic”.

Q: With O=C1C(Cl)=C(Cl)C(=O)c2ccccc21 [Dichlon] as the compound, how does the Activity [4] read?
A: The Activity was “Non-Toxic”.

Q: For CN(C)c1ccc(C2C(Cl)C(=O)N2C2=C(Cl)C(=O)c3ccccc3C2=O)cc1 (centres undefined), which Activity [6] is on record?
A: The Activity was 99%.

Q: And the Activity [2]?
A: Its Activity is “Dose-Dependent Effect”.

Q: And the Activity [7]?
A: The Activity was “Non-Toxic”.
